Results published in article PMC7801115, “Preclinical in vitro screening of newly synthesised amidino substituted benzimidazoles and benzothiazoles” (Journal of Enzyme Inhibition and Medicinal Chemistry, 2021).

Tests used:
HCC827 = assay: BrdU proliferation assay, 2D cell culture; format: cell-based; details: Homo sapiens, HCC827, 2D cell culture, ±SD, N = 2
Description: (§1) Cells were grown in 96 well cell star polystyrene plates. 10,000 cells/well were seeded in wells 4 h prior the treatment with different compounds concentrations and incubated for 72 h. A cell viability assay was performed according to the manufacturer’s instruction, using CellTiter 96 aqueous solution, MTS kit (Promega, Madison, WI, USA). After 0.5–2 h of cell incubation with MTS in 2 D cell culture, the plates were read using PE EnVision absorbance at 490 nm. […] Since we prefer homogeneous assays (mix and read procedures) and therefore MTS is more practical (one step less than MTT). MTS is more sensitive and accurate in comparison with MTT assay.
(§2) Proliferation assay was performed using Cell Proliferation ELISA, BrdU (Sigma, St. Louis, MO, USA). Briefly, 48 h hours after compound addition, 10 µM of BrdU was added to each well and incubated for following 24 h. After incubation, single cell suspension was made for 3 D cell culture in the new 96 well plate. Plates were centrifuged and supernatants were removed from each plate (for 2 D and 3 D cell culture) followed by 60 min incubation at 60° C. The rest of the proliferation assay was performed according to the manufacturer instructions.
(§3) Calculation of IC50 data, curves and QC analysis is made by using Excel tools and GraphPadPrism software (La Jolla, CA), v. […] QC criteria parameters (Z', S:B, R2, HillSlope) were checked for every IC50 curve.

NCI-H358 = assay: BrdU proliferation assay, 2D cell culture; format: cell-based; details: Homo sapiens, NCI-H358, 2D cell culture, ±SD, N = 2
Description: as §1, §2, §3

MDCKII-hMDR1 cells = assay: MDCKII-MDR1 permeability and P-glycoprotein substrate assay; format: in vitro ADME, canine cells over-expressing human MDR1; details: without P-gp inhibitor
Description: Permeability and P-glycoprotein substrate assessment was done on MDCKII-hMDR1, Madin-Darby canine epithelial cells over-expressing human MDR1 gene, coding for P-glycoprotein.
Cells were prepared for transport studies by seeding on 96-well cell culture inserts (Millipore, MA, USA) in a concentration of 0.25 × 10^6 cells per ml. The cells were fed with fresh medium 24 h post seeding and cultured to confluence for 3 days before use. On the day of experiment, the cell monolayers were washed and equilibrated with transport medium (DPBS, pH 7.4 containing 1% DMSO) with or without P-gp specific inhibitor, elacridar (2 µM) for 45 min (37 °C, 5% CO2, 95% humidity). Test compound solution consisted of test substance (10 μM) in D-PBS medium containing lucifer yellow (100 μM) and 1% DMSO. Transport assays were conducted in apical to basolateral (A2B) and basolateral to apical (B2A) directions, respectively. Monolayers were incubated with the compound solution for 60 min at 37 °C under gentle agitation. Apical and basolateral compartments were sampled at the end of the transport experiment, while donor solutions were also sampled at the beginning of the experiment in order to determine initial concentration. Test substance concentrations in both compartments were determined by LC-MS/MS. There were several controls used in the assay: 1) amprenavir (0.5 μM) served as a low permeable control, being also a P-gp substrate; 2) diclofenac (10 μM) was used as a high permeable control; 3) Lucifer yellow, a fluorescent marker for the paracellular membrane transport, was used as a control of cell monolayer integrity.
All ADME samples were analysed on a Sciex API 4000 or Sciex API4500 Triple Quadrupole Mass Spectrometer (Sciex, Framingham, MA, USA) coupled to a UHPLC System (Shimadzu Nexera X2; Shimadzu, Kyoto, Japan). Samples were injected onto an UPLC column (HALO2 C18, 2.1 × 20 mm, 2 µm or Phenomenex Luna Omega Polar C18, 30 × 2.1 mm, 1.6 µm) and eluted with a gradient at temperature of 50 °C. The mobile phase was composed of acetonitrile (with 0.1% formic acid) and 0.1% formic acid in deionised water. A total run time was 1 or 1.5 min, with the flow rate of 0.7 ml/min (under gradient conditions). A positive ion mode with turbo spray, an ion source temperature of 500 °C and a dwell time of 150 ms were utilised for mass spectrometric detection. Multiple reaction monitoring (MRM) was used at the specific transitions for each compound/control tested: compound 5c: 361.9 → 304.9; compound 5d: 344.8 → 287.9; compound 5e: 349.8 → 292.9; compound 5 g: 350.8 → 293.9; compound 5 h: 344.0 → 286.9; compound 6a: 276.9 → 220.0; compound 5 b: 319.0 → 262.0; compound 6 b: 302.1 → 245.1; compound 6c: 344.9 → 288.0; compound 6d: 333.0 → 276.0; compound 6e: 316.1 → 259.0; compound 6f: 327.1 → 270.0; compound 6 g: 377.1 → 320.1; testosterone: 289.3→ 97.1; propranolol: 260.1 → 182.8; caffeine: 195.2 → 138.1; acebutolol: 337.2 → 116.2, nicardipine: 480.2 → 315.0; verapamil: 455.4 → 165.1; amprenavir: 506.2 → 245.4; diclofenac: 296.1 → 213.7 or 296.2 → 215.3; eucatropine: 292.2 → 109.1; benfluorex: 352.1 → 230.3, and warfarin: 309.2 → 163.2

SMILES | IC50 (HCC827) [µM] | IC50 (NCI-H358) [µM] | MDCKII-MDR1 Efflux ratio (MDCKII-hMDR1 cells) | melting point [°C]
c1ccc2c(c1)cc(-c1nc3cc(C4=NCCCN4)ccc3[nH]1)c1ccccc12 [Compound 6g, 2-(Phenanthrene-9-yl)-5(6)–(3,4,5,6-tetrahydropyrimidin-1-ium-2-yl)benzimidazole chloride] | > 50 | > 50 | – | –
N#Cc1ccc(-c2nc3cc(C4=NCCCN4)ccc3[nH]2)cc1 [Compound 6b, 2–(4-Cyanophenyl)-5(6)–(3,4,5,6-tetrahydropyrimidin-1-ium-2-yl)benzimidazole chloride] | > 50 | > 50 | 1.13 | –
Cl.c1ccc2sc(-c3nc4ccc(C5=NCCCN5)cc4s3)cc2c1 [Compound 5e, 2-(Benzo[b]thiophen-2-yl)-6–(3,4,5,6-tetrahydropyrimidin-1-ium-2-yl)benzothiazole chloride] | 10 ± 1.21 | 9 ± 0.65 | – | > 300
c1ccc2cc(-c3nc4cc(C5=NCCCN5)ccc4[nH]3)ccc2c1 [Compound 6f, 2-(Naphthalene-2-yl)-5(6)–(3,4,5,6-tetrahydropyrimidin-1-ium-2-yl)benzimidazole chloride] | > 50 | > 50 | – | –
Cl.c1ccc2sc(-c3nc4ccc(C5=NCCCN5)cc4s3)nc2c1 [Compound 5g, 2-(Benzothiazole-2-yl)-6–(3,4,5,6-tetrahydropyrimidin-1-ium-2-yl)benzothiazole chloride] | 18 ± 0.76 | 13 ± 0.45 | – | > 300
Cl.c1ccc2nc(-c3nc4ccc(C5=NCCCN5)cc4s3)ccc2c1 [Compound 5d, 2-(Quinoline-2-yl)-6–(3,4,5,6-tetrahydropyrimidin-1-ium-2-yl)benzothiazole chloride] | 11 ± 0.17 | 9 ± 0.31 | – | > 300
c1ccc2sc(-c3nc4cc(C5=NCCCN5)ccc4[nH]3)cc2c1 [Compound 6d, 2-(Benzo[b]thiophen-2-yl)-5(6)–(3,4,5,6-tetrahydropyrimidin-1-ium-2-yl)benzimidazole chloride] | > 50 | > 50 | – | –
FC(F)(F)c1ccc(-c2nc3cc(C4=NCCCN4)ccc3[nH]2)cc1 [Compound 6c, 2–(4-Trifluoromethylphenyl)-5(6)–(3,4,5,6-tetrahydropyrimidin-1-ium-2-yl)benzimidazole chloride] | > 50 | > 50 | – | –
Cl.N#Cc1ccc(-c2nc3ccc(C4=NCCCN4)cc3s2)cc1 [Compound 5b, 2–(4-Cyanophenyl)-6–(3,4,5,6-tetrahydropyrimidin-1-ium-2-yl)benzothiazole chloride] | > 50 | > 50 | – | > 300
c1ccc2c(-c3nc4ccc(C5=NCCCN5)cc4[nH]3)c[nH]c2c1 [Compound 6e, 2-(1H-Indol-3-yl)-5(6)–(3,4,5,6-tetrahydropyrimidin-1-ium-2-yl)benzimidazole chloride] | > 50 | > 50 | – | –
Cl.c1ccc2cc(-c3nc4ccc(C5=NCCCN5)cc4s3)ccc2c1 [Compound 5h, 2-(Naphthalene-2-yl)-6–(3,4,5,6-tetrahydropyrimidin-1-ium-2-yl)benzothiazole chloride] | 9 ± 0.83 | 7 ± 0.07 | – | > 300
Cl.FC(F)(F)c1ccc(-c2nc3ccc(C4=NCCCN4)cc3s2)cc1 [Compound 5c, 2–(4-Trifluoromethylphenyl)-6–(3,4,5,6-tetrahydropyrimidin-1-ium-2-yl)benzothiazole chloride] | 15 ± 2.18 | 16 ± 4.14 | – | 279 to 283
c1ccc(-c2nc3cc(C4=NCCCN4)ccc3[nH]2)cc1 [Compound 6a, 2-Phenyl-5(6)–(3,4,5,6-tetrahydropyrimidin-1-ium-2-yl)benzimidazole chloride] | 7 ± 0.35 | 7 ± 0.3 | – | –
